{"source": "patent US11779649B2", "about": "“Antibodies to PMEL17 and conjugates thereof” (Novartis AG, priority 2018, dated 2023)", "key": {"92.1 uveal melanoma": {"test_system": "92.1 uveal melanoma", "test": "Resazurin-based viability assay, 92.1 uveal melanoma cells", "type": "cell-based", "protocol": "(§1) Following drug treatment for 96 or 120 hours, cell viability and proliferation were determined using a resazurin-based viability assay. Briefly, cells were incubated with a resazurin-based solution and color change was detected by absorbance with a spectrophotometer and used as a readout of cell viability. Data presented as mean of 3 independent replicates and relative to PBS-treated cells (control).\nas §1, with “(control) (FIG. 6).” for “(control).”\nFollowing drug treatment for 96 or 120 hours, cell viability and proliferation were determined using a resazurin-based viability assay. Data presented as mean of 3 independent replicates and relative to PBS-treated cells (control) (FIG. 8).\nas §1"}, "[1]": {"test_system": "MIAPACA pancreatic ductal adenocarcinoma cells", "test": "Resazurin-based viability assay, MIAPACA cells", "type": "cell-based", "conditions": "Homo sapiens, MIA PaCa-2, WT, 96 or 120 hours, Table 4", "protocol": "as §1, with “92.1 uveal melanoma and MIAPACA pancreatic ductal adenocarcinoma cells were seeded at low cell density in 96-well plates and treated with increasing concentrations of Compound (A1) or Compound (A2) as indicated. Following” for “Following”"}, "92.1 cells": {"test_system": "92.1 cells", "test": "Annexin V flow cytometry apoptosis assay, 92.1 cells", "type": "cell-based", "conditions": "92.1 and MIAPACA cells, FIG. 2", "protocol": "(§2) 92.1 and MIAPACA cells were seeded in 96-well plates (5000 cells per well) and treated with increasing concentrations of Compound (A1), Compound (A2), and a fixed dose of Staurosporine (100 nM, positive control) as indicated. Following drug treatment for 96, cells were subjected to fluorescence-activated flow cytometry using an Annexin V antibody conjugated to a fluorescent dye. Data presented as mean of 3 independent replicates.\nas §2, with “92.1” for “92.1 and MIAPACA”, “3207-(B1) (Isotype control), G4-(B1),” for “Compound (A2),”, “G1-(B1)” for “a fixed dose of Staurosporine (100 nM, positive control)”"}, "GNAQ/11": {"test_system": "GNAQ/11", "test": "IP1 levels by TR-FRET in 92.1 uveal melanoma cells", "type": "cell-based", "conditions": "92.1 cells, overnight treatment, FIG. 3A", "protocol": "(§3) 92.1 uveal melanoma were treated with increasing concentrations of Compound (A1) or Compound (A2) as indicated. Following drug treatment overnight, cells were processed for determination of IP1 levels using TR-FRET (time-resolved fluorescent resonance energy transfer) or protein levels by western-blotting.\n92.1 uveal melanoma were treated with DMSO, Compound (A1) (8 nM) and increasing concentrations of Isotype-(B1), anti-PMEL17-(B1) and anti-PMEL17-(B2) ADCs as indicated. Following drug treatment for 2 days, cells were processed for determination of IP1 levels using TR-FRET (time-resolved fluorescent resonance energy transfer). IP1 levels (nM) are presented as mean of 3 independent replicates."}, "ERK signaling": {"test_system": "ERK signaling", "test": "Western-blotting of 92.1 cells, ERK signaling", "type": "cell-based", "conditions": "FIG. 3C", "protocol": "as §3"}, "[2]": {"test": "Chemical stability of Compound (A2) in three different systems", "type": "physicochemical", "conditions": "FIG. 5B", "protocol": "(§4) In vitro stability of Compound (A2) was tested in plasma and blood from different species (FIG. 5A). […]"}, "[3]": {"test": "PK of Compound (A2) in female balb/c mice", "type": "in vivo", "protocol": "as §4"}, "[4]": {"test": "Stability of Compound (A2), hepatic microsomes, mouse", "type": "in vitro ADME", "conditions": "intrinsic clearance", "protocol": "as §4"}, "[5]": {"test": "Stability of Compound (A2), hepatic microsomes, rat", "type": "in vitro ADME", "conditions": "intrinsic clearance", "protocol": "as §4"}, "[6]": {"test": "Stability of Compound (A2), hepatic microsomes, human", "type": "in vitro ADME", "conditions": "intrinsic clearance", "protocol": "as §4"}, "[7]": {"test": "Stability of Compound (A2), hepatocytes, rat", "type": "in vitro ADME", "protocol": "as §4"}, "[8]": {"test": "Stability of Compound (A2), hepatocytes, human", "type": "in vitro ADME", "protocol": "as §4"}, "[9]": {"test": "Stability of Compound (A2), hepatic S9 fraction, mouse", "type": "in vitro ADME", "conditions": "read-out: Hepatic S9 (+/−NADPH) t½ (converted)", "protocol": "as §4"}, "[10]": {"test": "Stability of Compound (A2), hepatic S9 fraction, rat", "type": "in vitro ADME", "protocol": "as §4"}, "[11]": {"test": "Stability of Compound (A2), hepatic S9 fraction, human", "type": "in vitro ADME", "conditions": "read-out: Hepatic S9 (+/−NADPH) t½ (converted)", "protocol": "as §4"}, "[12]": {"test": "Stability of Compound (A2), plasma, mouse", "type": "in vitro ADME", "conditions": "read-out: Plasma t½ (converted)", "protocol": "as §4"}, "[13]": {"test": "Stability of Compound (A2), plasma, rat", "type": "in vitro ADME", "conditions": "read-out: Plasma t½ (converted)", "protocol": "as §4"}, "[14]": {"test": "Stability of Compound (A2), plasma, human", "type": "in vitro ADME", "conditions": "read-out: Plasma t½ (converted)", "protocol": "as §4"}, "[15]": {"test": "Stability in buffer at pH 5.6 and in lysosomes", "type": "in vitro ADME", "conditions": "buffer pH 5.6, lysosomes, 4 h, FIG. 5D", "protocol": "as §4"}}, "note": "Like-named read-outs stand apart in the source and are kept apart here. Positions of bridges follow the written chain, without caps; N, C: chain ends. Non-standard residues stand in square brackets, D forms with d. Residues, ends and D or L forms follow the SMILES beside them. Leu(3R-O(AcLeu(3R-OH))) = CC(=O)N[C@H](C(=O)O[C@H](C(C)C)[C@H](N)C(=O)O)[C@H](O)C(C)C; NMeT = CN[C@H](C(=O)O)[C@@H](C)O; dPhLac = O=C(O)[C@H](O)Cc1ccccc1; NMeA = CN[C@@H](C)C(=O)O; NMeDha = C=C(NC)C(=O)O", "data": [{"smiles": "C=C1C(=O)N[C@@H](C)C(=O)N(C)[C@@H](C)C(=O)N[C@@H]([C@H](OC(=O)[C@@H](NC(C)=O)[C@H](O)C(C)C)C(C)C)C(=O)N(C)[C@@H]([C@@H](C)OC)C(=O)O[C@H](C)[C@H](NC(C)=O)C(=O)O[C@H](Cc2ccccc2)C(=O)N1C", "note": "[Compound (A2), (R)-1-((3S,6S,9S,12S,18R,21S,22R)-21-acetamido-18-benzyl-3-((R)-1-methoxyethyl)-4,9,10,12,16,22-hexamethyl-15-methylene-2,5,8,11,14,17,20-heptaoxo-1,19-dioxa-4,7,10,13,16-pentaazacyclodocosan-6-yl)-2-methylpropyl (2S,3R)-2-acetamido-3-hydroxy-4-methylpentanoate] (Ac-T[dPhLac][NMeDha]A[NMeA][Leu(3R-O(AcLeu(3R-OH)))][NMeT](Me); ester 1-C)", "values": [{"measurement": "GI50", "setting": "92.1 uveal melanoma; 92.1, GNAQ^Q209L, 96 or 120 hours, Table 4, read-out: GI50", "value": 7.7, "unit": "nM"}, {"measurement": "GI50", "setting": "92.1 uveal melanoma; 92.1 GNAQ^Q209L, Table 1, read-out: GI50 (nM) 92.1GNAQ^Q209L", "value": 22.1, "unit": "nM"}, {"measurement": "anti-UM activity", "setting": "92.1 uveal melanoma; 92.1 vs MIAPACA, FIG. 1", "value": "potent target-dependent anti-UM activity"}, {"measurement": "GI50", "setting": "[1]", "value": "> 10000", "unit": "nM"}, {"measurement": "apoptosis (Annexin V)", "setting": "92.1 cells", "value": "induced apoptosis in UM cells in GNAQ/11 dependent manner"}, {"measurement": "IP1 levels", "setting": "GNAQ/11", "value": "reduced IP1 levels"}, {"measurement": "ERK signaling (immunoblots)", "setting": "ERK signaling", "value": "reduced ERK signaling"}, {"measurement": "chemical stability", "setting": "[2]", "value": "good chemical stability in three different systems"}, {"measurement": "clearance", "setting": "[3]; FIG. 5C", "value": "high clearance"}, {"measurement": "elimination half-life", "setting": "[3]; FIG. 5C", "value": "short elimination half-life"}, {"measurement": "half-life", "setting": "[3]; mouse, in vivo, 1 mg/kg iv", "value": "0.4 ± 0.01", "unit": "h"}, {"measurement": "clearance", "setting": "[3]; mouse, in vivo, 1 mg/kg iv, read-out: CL", "value": "175 ± 29", "unit": "mL/min/kg"}, {"measurement": "Hepatic microsomes", "setting": "[4]", "value": 0.107, "unit": "mL/min/kg"}, {"measurement": "Hepatic microsomes", "setting": "[5]", "value": 0.033, "unit": "mL/min/kg"}, {"measurement": "Hepatic microsomes", "setting": "[6]", "value": 0.044, "unit": "mL/min/kg"}, {"measurement": "Hepatocytes (ul/min/10^6 cells)", "setting": "[7]", "value": 8, "unit": "ul/min/10^6 cells"}, {"measurement": "Hepatocytes (ul/min/10^6 cells)", "setting": "[8]", "value": "<4", "unit": "ul/min/10^6 cells"}, {"measurement": "half-life", "setting": "[9]; +NADPH", "value": 1.9, "unit": "h"}, {"measurement": "half-life", "setting": "[9]; −NADPH", "value": "> 2", "unit": "h"}, {"measurement": "half-life", "setting": "[10]; hepatic S9 fraction, +NADPH, read-out: Hepatic S9 (+/−NADPH) t½", "value": "> 2", "unit": "h"}, {"measurement": "Hepatic S9 (+/−NADPH) t½ (h)", "setting": "[10]; −NADPH", "value": ">2/>2 h"}, {"measurement": "half-life", "setting": "[11]; +NADPH", "value": 1.9, "unit": "h"}, {"measurement": "half-life", "setting": "[11]; −NADPH", "value": "> 2", "unit": "h"}, {"measurement": "half-life", "setting": "[12]", "value": 2.1, "unit": "h"}, {"measurement": "half-life", "setting": "[13]", "value": 4.1, "unit": "h"}, {"measurement": "half-life", "setting": "[14]", "value": 2, "unit": "h"}, {"measurement": "stability in buffer and lysosomes", "setting": "[15]", "value": "stable in buffer at pH 5.6 and in lysosomes over 4 h"}]}]}
